From patent publication US4855303A, “Fluorine containing renin inhibitors” (Pfizer Inc., priority 1988, dated 1989)

Biological target: T1, renin (Homo sapiens, UniProt P00797)
T1 sequence (P00797 67-406): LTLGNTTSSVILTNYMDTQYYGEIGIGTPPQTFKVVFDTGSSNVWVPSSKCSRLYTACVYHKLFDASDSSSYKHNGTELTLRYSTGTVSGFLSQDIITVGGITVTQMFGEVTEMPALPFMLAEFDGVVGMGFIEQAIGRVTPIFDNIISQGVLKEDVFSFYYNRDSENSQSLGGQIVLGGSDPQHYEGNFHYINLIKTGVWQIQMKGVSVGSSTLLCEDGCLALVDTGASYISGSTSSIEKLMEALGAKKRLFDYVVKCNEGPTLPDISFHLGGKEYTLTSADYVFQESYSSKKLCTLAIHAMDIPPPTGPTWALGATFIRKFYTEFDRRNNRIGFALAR
Assay: renin inhibitory potency
Assay type: biochemical
Conditions: 2S,5S product compared with the 2R,5R isomer separated by HPLC
Source text: The activity of the compounds of the present invention as inhibitors of the angiotensinogen-cleaving activity of renin may be determined by studying (1) their ability to inhibit the angiotensinogen-cleaving activity of renin in vitro and (2) their ability to antagonize the exogenous renin-induced pressor response in vivo.

Q: `CCCC[C@H](NC(=O)[C@H](Cc1ccccc1)NC(=O)N1CCOCC1)C(=O)N[C@@H](CC1CCCCC1)C(=O)C(F)(F)[C@@H](CC(C)C)C(=O)OCC` [Example 10, Ethyl (2S,5S)-2-isobutyl-3,3-difluoro-4-keto-5-N-(N-[morpholinocarbonyl-L-phenylalanyl]-L-norleucyl)-amino-6-cyclohexylhexanoate] was tested. Which renin inhibitory potency did it give?
A: Its renin inhibitory potency is “more active”.
